Reference: US11202815B2, “Composition for preventing, treating or improving prostate disease containing acanthopanax sessiliflorus, phragmites rhizome, and pinus densiflora extracts as active ingredient” (GENOME & MEDICINE CO., LTD., priority 2017, dated 2021)

Tested on: 5α-reductase type 2 (SRD5A2)
Test: Western blotting of 5α-reductase type 2 (SRD5A2) protein expression level
Format: cell-based
Conditions: 0.40 mM, cultured for 24 hours, FIG. 8
Procedure: 5α-reductase had total three types of subtypes (types 1, 2 and 3), in which types 1 and 3 have been studied for diseases such as male hair loss or acne and type 2 was directly associated with benign prostatic hyperplasia.
As a result, in Example 6, a 5α-reductase type 2 (SRD5A2) protein expression level was analyzed by Western blotting to confirm 5α-reductase inhibitory activity.
Specifically, the cells were divided at a concentration of 2.0×10^5 cell/well and treated with 100 μg/ml of the Acanthopanax sessiliflorus extract, 600 μg/ml of the Pinus densiflora extract, 600 μg/ml of the Phragmites rhizome extract, or 350 μg/ml of the complex extract (Extract 4) obtained by mixing the extracts at 4:2:1 in a PRMI1640 medium containing 1% fetal bovine serum (FBS), and then cultured for 24 hours.
Finasteride, which has been sold as a 5α-reductase inhibitor on the market, was used as a positive control.
Then, the cultured cells were lysed, filtered with a 0.45 μm mesh, and subjected to Western blotting according to a procedure shown in FIG. 7.
Specifically, a primary antibody (Anti-SRD5A2, Sigma) was diluted to 1:200 and treated, and a secondary antibody (m-IgGP-HRP, Santa Cruz) was diluted to 1:3000 and treated, and then the expression levels of 5α-reductase type 2 according to treatment of each extract and each compound were confirmed.

SMILES	expression levels of 5α-reductase type 2
O=C(O)/C=C/c1ccc(O)cc1 [p-coumaric acid]	significantly reduced
COc1cc([C@@H]2OC[C@@H]3[C@H]2CO[C@H]3c2cc(OC)c(O[C@@H]3O[C@H](CO)[C@@H](O)[C@H](O)[C@H]3O)c(OC)c2)cc(OC)c1O[C@@H]1O[C@H](CO)[C@@H](O)[C@H](O)[C@H]1O [acanthoside D]	significantly reduced
